The record followed here is US20230265116A1, “DEGRADATION OF (EGFR) BY CONJUGATION OF EGFR INHIBITORS WITH E3 LIGASE LIGAND AND METHODS OF USE” (BEIGENE, LTD., priority 2020, published 2023).

Assay [1] deals with EGFR Del19/T790M/C797S (BaF3-DTC cells). Briefly: EGFR degradation HTRF assay, BaF3-DTC cells. The assay is classed as cell-based. The conditions noted are these: 16h treatment; for DTC Dmax (%): maximum percentage of degradation; for DC50: read-out: DTC DC50. The protocol:
BaF3 WT(wild type), BaF3-LTC(L858R/T790M/C797S) and BaF3-DTC(Del19/T790M/C797S) cells are treated with compounds diluted in 0.2% DMSO cell culture medium and incubate for 16h, 37° C., 5% CO2, H1975-#36, H1975-#28, H1975-#23 and HCC827 cells are treated with compounds diluted in 0.2% DMSO cell culture medium on day 2, incubate for 16h, 37° C., 5% CO2.the final concentriation of compounds in all assay is start with 10 uM, 5-fold dilution, total 8 doses were included.
After 16h treatment, add HTRF lysis buffer to each well; seal the plate and incubate 1 hour at room temperature on a plate shaker; Once the cells are lysed, 16 μL of cell lysate are transferred to a PE 384-well HTRF detection plate; 4 μL of pre-mixed HTRF antibodies are added to each well; Cover the plate with a plate sealer, spin 1000 rpm for 1 min, Incubate overnight at room temperature; Read on BMG PheraStar with HTRF protocol (337 nm-665 nm-620 nm).
The inhibition (degradation) percentage of the compound was calculated by the following equation: Inhibition percentage of Compound=100-100×(Signal-low control)/(High control-low control), wherein signal=each test compound group
High control=Cell group with added DMSO and without compound, indicating microplate readings without EGFR degradation;
Dmax is the maximum percentage of inhibition (degradation).
The IC50 (DC50) value of a compound can be obtained by fitting the following equation
Y=Bottom+(TOP−Bottom)/(1+((IC50/X)^hillslope))
Wherein, X and Y are known values, and IC50, Hillslope, Top and Bottom are the parameters obtained by fitting with software. Y is the inhibition percentage (calculated from the equation), X is the concentration of the compound; IC50 is the concentration of the compound when the 50% inhibition is reached. The smaller the IC50 value is, the stronger the inhibitory ability of the compound is. Vice versa, the higher the IC50 value is, the weaker the inhibitory ability of the compound is; Hillslope represents the slope of the fitted curve, generally around 1*; Bottom represents the minimum value of the curve obtained by data fitting, which is generally 0%±20%; Top represents the maximum value of the curve obtained by data fitting, which is generally 100%±20%. The experimental data were fitted by calculating and analyzing with Dotmatics data analysis software.
On the technique in general: TR-FRET usually uses a lanthanide donor and a delayed reading to cut background.

Assay [2] has as its target T1, EGFR L858R/T790M/C797S (BaF3-LTC cells) (Homo sapiens, UniProt P00533, C797S/L858R/T790M).
T1 construct: expressed in transfected cells; host or cells: BaF3
Briefly: EGFR degradation HTRF assay, BaF3-LTC cells. The assay is classed as cell-based. The conditions noted are these: BaF3-LTC, 16h treatment; for Dmax: maximum percentage of degradation, read-out: LTC Dmax (%); for DC50: read-out: LTC DC50. A digest of the protocol: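 Cells treated 16 h at 37 °C, 5% CO2 in medium with 0.2% DMSO; top final concentration 10 uM, 5-fold dilution, 8 doses. Lysates read by HTRF (665/620 nm); degradation % versus DMSO high control, DC50 from four-parameter fit, Dmax as maximal degradation.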

Each structure is given as a SMILES string.

T1 sequence (P00533 25-1210 T790M/C797S/L858R): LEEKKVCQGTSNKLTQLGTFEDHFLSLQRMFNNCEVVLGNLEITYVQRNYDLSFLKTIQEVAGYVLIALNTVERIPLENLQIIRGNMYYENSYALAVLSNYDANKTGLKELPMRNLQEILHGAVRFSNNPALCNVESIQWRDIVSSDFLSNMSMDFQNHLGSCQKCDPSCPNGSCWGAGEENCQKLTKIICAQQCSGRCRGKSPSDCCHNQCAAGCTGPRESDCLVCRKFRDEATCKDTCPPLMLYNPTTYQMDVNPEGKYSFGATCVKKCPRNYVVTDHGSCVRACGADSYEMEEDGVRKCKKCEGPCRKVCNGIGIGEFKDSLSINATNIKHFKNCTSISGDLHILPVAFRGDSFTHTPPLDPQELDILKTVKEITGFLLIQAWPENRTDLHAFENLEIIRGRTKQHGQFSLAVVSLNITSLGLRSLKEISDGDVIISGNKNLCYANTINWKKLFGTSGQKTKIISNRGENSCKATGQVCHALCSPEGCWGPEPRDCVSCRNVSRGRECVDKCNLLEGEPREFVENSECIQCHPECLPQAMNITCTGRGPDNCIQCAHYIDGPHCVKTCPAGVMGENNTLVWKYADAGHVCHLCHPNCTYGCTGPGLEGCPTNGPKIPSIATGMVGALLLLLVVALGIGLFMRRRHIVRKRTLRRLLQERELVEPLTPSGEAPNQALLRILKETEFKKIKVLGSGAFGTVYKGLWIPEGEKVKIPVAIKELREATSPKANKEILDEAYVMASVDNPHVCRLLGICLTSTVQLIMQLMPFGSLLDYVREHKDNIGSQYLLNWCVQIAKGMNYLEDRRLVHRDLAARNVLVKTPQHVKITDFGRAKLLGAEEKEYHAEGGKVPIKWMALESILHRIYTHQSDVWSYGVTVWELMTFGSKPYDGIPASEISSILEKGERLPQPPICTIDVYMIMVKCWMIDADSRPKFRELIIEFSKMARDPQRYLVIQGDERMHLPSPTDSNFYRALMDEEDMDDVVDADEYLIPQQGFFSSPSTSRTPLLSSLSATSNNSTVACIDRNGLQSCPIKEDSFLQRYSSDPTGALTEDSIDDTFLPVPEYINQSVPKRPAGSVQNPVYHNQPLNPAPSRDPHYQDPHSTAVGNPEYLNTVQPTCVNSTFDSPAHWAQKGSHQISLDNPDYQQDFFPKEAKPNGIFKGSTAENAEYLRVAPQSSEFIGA

In general, DC50 refers to the concentration giving 50% degradation. The term Dmax denotes the greatest extent of degradation seen. `CCc1cc(Nc2ncc(Br)c(Nc3ccc4nc(C)ccc4c3P(C)(C)=O)n2)c(OC)cc1N1CCC(N2CCN(CCc3ccc4c(cnn4C4CCC(=O)NC4=O)c3)CC2)CC1` (stereo not drawn) [Example 211, 3-(5-(2-(4-(1-(4-((5-bromo-4-((5-(dimethylphosphoryl)-2-methylquinolin-6-yl)amino)pyrimidin-2-yl)amino)-2-ethyl-5-methoxyphenyl)piperidin-4-yl)piperazin-1-yl)ethyl)-1H-indazol-1-yl)piperidine-2,6-dione]: in assay [1], the “DTC Dmax (%)” value was 94.88% and the half-maximal degradation concentration (DC50) amounted to 0.00272 µM. In assay [2], the Dmax turned out to be 91.4% and the DC50 turned out to be 0.00475 µM.

In the case of `COc1cc(N2CCC(N3CCN(CCc4ccc(C5CCC(=O)NC5=O)c(F)c4)CC3)CC2)ccc1Nc1ncc(Br)c(Nc2ccc3nccnc3c2P(C)(C)=O)n1` (stereo not drawn) [Example 212, 3-(4-(2-(4-(1-(4-((5-bromo-4-((5-(dimethylphosphoryl)quinoxalin-6-yl)amino)pyrimidin-2-yl)amino)-3-methoxyphenyl)piperidin-4-yl)piperazin-1-yl)ethyl)-2-fluorophenyl)piperidine-2,6-dione], in assay [1], the “DTC Dmax (%)” value turned out to be 94.28% and the 50% degradation concentration (DC50) was 0.0166 µM. Moreover, in assay [2], the maximal degradation (Dmax) was 78.8% and the DC50 was 0.0812 µM.

Consider `COc1cc(N2CCC(N3CCN(CCC4CCN(c5cc(F)c(C6CCC(=O)NC6=O)c(F)c5)CC4)CC3)CC2)ccc1Nc1ncc(Br)c(Nc2ccc3nccnc3c2P(C)(C)=O)n1` (stereo not drawn) [Example 213, 3-(4-(4-(2-(4-(1-(4-((5-bromo-4-((5-(dimethylphosphoryl)quinoxalin-6-yl)amino)pyrimidin-2-yl)amino)-3-methoxyphenyl)piperidin-4-yl)piperazin-1-yl)ethyl)piperidin-1-yl)-2,6-difluorophenyl)piperidine-2,6-dione], for which, in assay [1], the “DTC Dmax (%)” value is given as 94.05% and the DC50 was 0.00471 µM. Besides, in assay [2], the maximal degradation (Dmax) is 88.6% and the DC50 turned out to be 0.0211 µM.

On to `COc1cc(N2CCC(N3CCN(CCc4ccc(C5CCC(=O)NC5=O)c(F)c4)CC3)CC2)c(C)cc1Nc1ncc(Br)c(Nc2ccc3nccnc3c2P(C)(C)=O)n1` (stereo not drawn) [Example 214, 3-(4-(2-(4-(1-(4-((5-bromo-4-((5-(dimethylphosphoryl)quinoxalin-6-yl)amino)pyrimidin-2-yl)amino)-5-methoxy-2-methylphenyl)piperidin-4-yl)piperazin-1-yl)ethyl)-2-fluorophenyl)piperidine-2,6-dione], for which, in assay [1], the “DTC Dmax (%)” value is 85.16% and the DC50 stood at 0.0137 µM. Further, in assay [2], the maximal degradation (Dmax) amounted to 75% and the DC50 stood at 0.0549 µM.

With `COc1cc(N2CCC(N3CCN(CCC4CCN(c5cc(F)c(C6CCC(=O)NC6=O)c(F)c5)CC4)CC3)CC2)c(C)cc1Nc1ncc(Br)c(Nc2ccc3nccnc3c2P(C)(C)=O)n1` (stereo not drawn) [Example 215, 3-(4-(4-(2-(4-(1-(4-((5-bromo-4-((5-(dimethylphosphoryl)quinoxalin-6-yl)amino)pyrimidin-2-yl)amino)-5-methoxy-2-methylphenyl)piperidin-4-yl)piperazin-1-yl)ethyl)piperidin-1-yl)-2,6-difluorophenyl)piperidine-2,6-dione], in assay [1], the “DTC Dmax (%)” value is reported as 96.67% and the DC50 was found to be 0.00491 µM. Besides, in assay [2], the Dmax was 91.4% and the DC50 came out at 0.0205 µM.

Consider `COc1cc(N2CCC(N3CCN(CCC4CCN(c5cc(F)c(C6CCC(=O)NC6=O)c(F)c5)CC4)CC3=O)CC2)c(C)cc1Nc1ncc(Br)c(Nc2ccc3nccnc3c2P(C)(C)=O)n1` (stereo not drawn) [Example 216, 3-(4-(4-(2-(4-(1-(4-((5-bromo-4-((5-(dimethylphosphoryl)quinoxalin-6-yl)amino)pyrimidin-2-yl)amino)-5-methoxy-2-methylphenyl)piperidin-4-yl)-3-oxopiperazin-1-yl)ethyl)piperidin-1-yl)-2,6-difluorophenyl)piperidine-2,6-dione], for which, in assay [1], the “DTC Dmax (%)” value was 93.59% and the DC50 worked out at 0.00556 µM. Moreover, in assay [2], the Dmax was determined as 87.7% and the DC50 is 0.0233 µM.

For the compound `COc1cc(N2CCC(N3CCN(CCC4CCN(c5cc(F)c(C6CCC(=O)NC6=O)c(F)c5)CC4)CC3)CC2)c(C)cc1Nc1ncc(Br)c(Nc2ccc3nc(C)ccc3c2P(C)(C)=O)n1` (stereo not drawn) [Example 217, 3-(4-(4-(2-(4-(1-(4-((5-bromo-4-((5-(dimethylphosphoryl)-2-methylquinolin-6-yl)amino)pyrimidin-2-yl)amino)-5-methoxy-2-methylphenyl)piperidin-4-yl)piperazin-1-yl)ethyl)piperidin-1-yl)-2,6-difluorophenyl)piperidine-2,6-dione], in assay [1], the “DTC Dmax (%)” value came to 90.75% and the DC50 was determined as 0.0297 µM. Besides, in assay [2], the Dmax was 89.6% and the DC50 amounted to 0.0868 µM.

Turning to `COc1cc(N2CCC(N3CCN(CCC4CCN(c5cc(F)c(C6CCC(=O)NC6=O)c(F)c5)CC4)CC3)CC2)ccc1Nc1ncc(Br)c(Nc2ccc3nc(C)ccc3c2P(C)(C)=O)n1` (stereo not drawn) [Example 218, 3-(4-(4-(2-(4-(1-(4-((5-bromo-4-((5-(dimethylphosphoryl)-2-methylquinolin-6-yl)amino)pyrimidin-2-yl)amino)-3-methoxyphenyl)piperidin-4-yl)piperazin-1-yl)ethyl)piperidin-1-yl)-2,6-difluorophenyl)piperidine-2,6-dione], in assay [1], the “DTC Dmax (%)” value is reported as 97.83% and the DC50 is 0.0029 µM. Further, in assay [2], the Dmax was 87.3% and the half-maximal degradation concentration (DC50) was 0.00919 µM.

Consider `CCc1cc(Nc2ncc(Br)c(Nc3ccc4nccnc4c3P(C)(C)=O)n2)c(OC)cc1N1CCC(N2CCN(C(=O)[C@H]3CCN(c4ccc(C5CCC(=O)NC5=O)cc4)C3)CC2)CC1` (stereo partly drawn) [Example 223, 3-(4-((S)-3-(4-(1-(4-((5-bromo-4-((5-(dimethylphosphoryl)quinoxalin-6-yl)amino)pyrimidin-2-yl)amino)-2-ethyl-5-methoxyphenyl)piperidin-4-yl)piperazine-1-carbonyl)pyrrolidin-1-yl)phenyl)piperidine-2,6-dione], for which, in assay [1], the “DTC Dmax (%)” value was found to be 86.61% and the DC50 was 0.00856 µM. In assay [2], the Dmax amounted to 82.9% and the DC50 was 0.0313 µM.

With `CCc1cc(Nc2ncc(Br)c(Nc3ccc4nccnc4c3P(C)(C)=O)n2)c(OC)cc1N1CCC(N2CCN(C(=O)[C@@H]3CCN(c4ccc(C5CCC(=O)NC5=O)cc4)C3)CC2)CC1` (stereo partly drawn) [Example 224, 3-(4-((R)-3-(4-(1-(4-((5-bromo-4-((5-(dimethylphosphoryl)quinoxalin-6-yl)amino)pyrimidin-2-yl)amino)-2-ethyl-5-methoxyphenyl)piperidin-4-yl)piperazine-1-carbonyl)pyrrolidin-1-yl)phenyl)piperidine-2,6-dione], in assay [1], the “DTC Dmax (%)” value is given as 87.47% and the DC50 came to 0.00841 µM. Moreover, in assay [2], the Dmax is 81.5% and the half-maximal degradation concentration (DC50) was determined as 0.0372 µM.

Take `CCc1cc(Nc2ncc(Br)c(Nc3ccc4nccnc4c3P(C)(C)=O)n2)c(OC)cc1N1CCC(N2CCN(C(=O)[C@H]3CCN(c4cccc(C5CCC(=O)NC5=O)c4)C3)CC2)CC1` (stereo partly drawn) [Example 225, 3-(3-((S)-3-(4-(1-(4-((5-bromo-4-((5-(dimethylphosphoryl)quinoxalin-6-yl)amino)pyrimidin-2-yl)amino)-2-ethyl-5-methoxyphenyl)piperidin-4-yl)piperazine-1-carbonyl)pyrrolidin-1-yl)phenyl)piperidine-2,6-dione]: in assay [1], the “DTC Dmax (%)” value amounted to 89.48% and the DC50 amounted to 0.00698 µM. Further, in assay [2], the Dmax was 79.2% and the DC50 was 0.0489 µM.

Turning to `CCc1cc(Nc2ncc(Br)c(Nc3ccc4nccnc4c3P(C)(C)=O)n2)c(OC)cc1N1CCC(N2CCN(CC3CN(c4cccc(C5CCC(=O)NC5=O)c4)C3)CC2)CC1` (stereo not drawn) [Example 226, 3-(3-(3-((4-(1-(4-((5-bromo-4-((5-(dimethylphosphoryl)quinoxalin-6-yl)amino)pyrimidin-2-yl)amino)-2-ethyl-5-methoxyphenyl)piperidin-4-yl)piperazin-1-yl)methyl)azetidin-1-yl)phenyl)piperidine-2,6-dione], in assay [1], the “DTC Dmax (%)” value is given as 77.91% and the DC50 amounted to 0.0266 µM. Besides, in assay [2], the Dmax is 66.9% and the DC50 is 0.0314 µM.
